From patent US20070059299A1, “S-adenosyl methionine decarboxylase inhibition for the treatment of a herpes simplex virus infection” (Institut National de la Sante et de la Recherche Medicale …, priority 2002, published 2007)

How the values were obtained:
[1] = test system: foscarnet-resistant reference strain TP 2.5; experiment: Antiviral susceptibility testing by ELISA on HEp-2 cells, strain TP 2.5; assay type: cell-based, HSV 1; conditions: median of at least three assays, drugs diluted in μM, read-out: Susceptibility of strain TP2.5 (concentration causing 50% inhibition of viral replication, IC50), median
Experimental: (§1) Three HSV 1 reference strains were tested : SC16 (acyclovir-susceptible reference strain; (Hill et al., 1975)), DM21 (acyclovir-resistant reference strain derived from SC16; (Efstathiou et al., 1989)) and TP 2.5 (foscarnet-resistant reference strain derived from SC16; (Larder and Darby, 1985)). Antiviral assays were performed in duplicate on HEp-2 cells seeded in 96 wells microplates. Dilutions of virus and drugs were prepared in E-MEM without FCS. Cells were first treated for 24 hours with MGBG using a series of 6 twofold serial dilutions from 12.5 to 400 μM. Infection was then achieved with 5 tenfold dilutions of cell-associated virus (10^−1 to 10^−5). Each dilution was incubated with a series of 6 concentrations of each antiviral drug (from 12.5 to 400 μM in twofold dilutions for MGBG, from 0.16 to 500 μM in fivefold dilutions for acyclovir and from 31 to 1000 μM in twofold dilutions for foscarnet). […] After incubation at 36° C. with 5% CO2 for 24 hours post-infection, medium was replaced with freshly prepared dilutions of MGBG. Viral multiplication was checked 24 hours afterwards by an ELISA (Morfin et al., 1999), using a rabbit monoclonal anti-HSV 1 antibody (BO 114, Dako) and a protein A peroxidase-conjugated (BioRad). The substrate, 2,2′-azino-di(3-ethyl-benzthiazoline) sulfonic acid (ABTS) diluted in ABTS buffer (Boehringer, Mannheim), was added to each well. After 30 min at room temperature, the plates were briefly agitated and optical densities were read at 405 nm with a multichannel spectrophotomoter (Titertek-Multiskan). Optical density values were used with the Biolise program (Life Sciences International) to calculate the concentration of the drug causing a 50% inhibition of viral replication (IC50) by logistic regression analysis.
(§2) The capacity of MGBG to preclude infection of three HSV-1 acyclovir and/or foscarnet resistant strains was tested. […] The ED values were determined.

[2] = test system: HEp2 cells; experiment: Estimation of growth and viability of uninfected HEp2 cells (trypan blue counting); assay type: cell-based
Experimental: Uninfected HEp2 cells were grown in the absence (control) and the presence of 10 to 500 μM of MGBG for 24 h, 30 h and 48 h. Every 24 h, medium was replaced with fresh medium containing the same concentration of MGBG. At the time of harvesting, culture medium was collected from wells of untreated control cells and treated cells. Then cells from the monolayers were gently trypsinized and added to the corresponding previous cell culture medium. Total cells were collected by gentle centrifugation at 500×g and were resuspended in PBS containing 0.2% trypan blue. For each experiment, total cells, living cells and dead cells were counted.
The effect of MGBG on cell growth and viability was investigated. HEp2 cells were incubated in FCS free medium, in the presence of 10 μM to 500 μM of MGBG for 24 h, 30 h and 48 h. After harvesting, total cells, living cells and dead cells were counted.

[3] = test system: acyclovir-susceptible reference strain SC16; experiment: Antiviral susceptibility testing by ELISA on HEp-2 cells, strain SC16; assay type: cell-based, HSV 1; conditions: HEp-2, read-out: Susceptibility of strain SC16 (concentration causing 50% inhibition of viral replication, IC50), median
Experimental: as §1, §2

[4] = test system: HSV-1 proteins, mRNA and DNA; experiment: Levels of viral proteins (Western blot), mRNA and DNA (slot blot) in infected HEp2 cells; assay type: cell-based
Experimental: Total RNA and DNA from control mock-infected and infected HEp2 cells were purified using Qiagen RNA/DNA kit. RNA were submitted to DNAse/RNAse free digestion (1.5 unit/μg RNA) and DNA were submitted to RNAse A digestion (10 units/μg). Quantitation of SAMDC mRNA, of viral mRNAs and viral DNA present in each sample was determined by slot blot analysis using the 1250 bp PstI/PvuII fragment of pSAMr1 plasmid (Pajunen et al., 1988). The 746 bp SalI-EcoNI fragment of pSG28 and the 1308 bp MluI fragment of pSG124 plasmids (Goldin et al., 1981) were labelled with [^32P] and used as probes to detect the immediate early ICP27 and the early UL42 mRNAs respectively. Us11 late mRNA was detected with [^32P]-labelled probe composed of the 230 bp XhoI fragment of pHSV-Us12 plasmid (Diaz et al., 1996). Viral DNA was detected using the ICP27 specific DNA probe.
Mock-infected and HSV-1-infected HEp2 cells were washed three times with ice cold phosphate-buffered saline (PBS) (130 mM NaCl, 4 mM Na2HPO4.2H2O, 1.5 mM KH2PO4), scrapped into PBS, and collected by centrifugation at 500×g. Cells were resuspended in Laemmli buffer (Laemmli, 1970). Proteins were resolved by polyacrylamide gel electrophoresis and transferred by electroblotting onto a polyvinylidene difluoride membrane (Immobilon-P; Millipore). Viral proteins were analysed by Western blots (10 μg aliquots) using a 50 fold dilution of either a rabbit polyclonal anti-ICP27 antibody, or a rabbit polyclonal anti-Us11 antibody (Diaz et al., 1993), or a mouse monoclonal anti-UL42 antibody diluted 50 fold.
Cells were pre-treated with 10 to 200 μM of MGBG, then infected with HSV-1 in the presence of the same concentrations of MGBG. Proteins, RNA and DNA were extracted from cells infected for 24 h. Viral proteins were detected by Western blot using specific antibodies, whereas viral mRNA and DNA levels were assayed by slot blot analysis.

`CC(C=NNC(=N)N)=NNC(=N)N` [MGBG, methylglyoxal bis(guanylhydrazone)] was tested, and the IC50 [1] was 82 µM, the “percentage of dead cells of total cells” value ([2]; 25 μM MGBG, 48 h) was 10% and the “percentage of dead cells of total cells” value ([2]; 500 μM MGBG, 24 h) was 9%. For the same molecule, the “percentage of dead cells of total cells” value ([2]; 500 μM MGBG, 30 h) was 24%, the cell growth ([2]; 500 μM MGBG, FCS free) was “did not grow anymore” and the “growth rate of cells compared to control cells grown without MGBG” value ([2]; 24 h and 30 h, less than 200 μM MGBG, FCS free) was “no drastic difference”. For the same molecule, the “percentage of dead cells of total cells” value ([2]; less than 500 μM MGBG for 24 h and 30 h, less than 25 μM MGBG for 48 h) was ≤ 5%, the IC50 [3] was 103 µM and the viral replication ([4]; 6 h pre-treatment with 100 μM MGBG, MGBG alone, 24 h p.i.) was “totally inhibited”. The “viral DNA level, viral mRNA and proteins” value ([4]; cells pre-treated with 10 to 200 μM MGBG, infected 24 h, dose dependant) was “significantly decreased”.
